Assay results: patent publication US8084471B2, “Proteomimetic compounds as inhibitors of the interaction of nuclear receptor with coactivator peptides” (Yale University, priority 2006, dated 2011)
Each block holds one compound with its values, some of them ahead of it. Ends that are not written are not given here.

Experiments:
ERα [1] = target: T1, ERα (Homo sapiens, UniProt P03372); test: Fluorescence polarization assay: displacement of rhodamine-labeled peptide D22 from estradiol-activated ER; format: binding; parameters: purchased Invitrogen; conditions: for Ki: ERα 75 nM, 17β-estradiol 2 μM, D22 1 nM; for affinity (in words): FP assay; for fluorescence polarization titration curve: FIG. 2
T1 sequence (P03372 1-595): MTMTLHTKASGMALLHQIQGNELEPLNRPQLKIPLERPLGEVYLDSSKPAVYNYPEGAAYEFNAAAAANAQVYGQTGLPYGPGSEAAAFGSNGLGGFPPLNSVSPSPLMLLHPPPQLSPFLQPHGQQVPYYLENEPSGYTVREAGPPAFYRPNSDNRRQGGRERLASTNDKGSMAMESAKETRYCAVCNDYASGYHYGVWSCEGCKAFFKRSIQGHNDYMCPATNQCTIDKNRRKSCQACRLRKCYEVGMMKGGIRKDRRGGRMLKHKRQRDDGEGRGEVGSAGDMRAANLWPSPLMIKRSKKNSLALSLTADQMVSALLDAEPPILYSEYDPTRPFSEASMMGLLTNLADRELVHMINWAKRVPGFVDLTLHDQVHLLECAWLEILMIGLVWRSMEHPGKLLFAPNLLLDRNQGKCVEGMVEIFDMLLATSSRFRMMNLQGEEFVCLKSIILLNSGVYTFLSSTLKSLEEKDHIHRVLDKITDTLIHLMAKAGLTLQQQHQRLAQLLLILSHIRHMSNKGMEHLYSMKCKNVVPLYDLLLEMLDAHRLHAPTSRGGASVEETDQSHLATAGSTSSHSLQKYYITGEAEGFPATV

ERα [2] = target: T1, ERα; test: Competitive radioligand assay with [3H]estradiol for the estradiol binding site; parameters: purchased MDS Pharma Services (contract assay); host or cells: Sf9 insect cells; conditions: ERα from human recombinant insect Sf9 cells
Protocol: Inhibition of coactivator binding by a small molecule involves either direct competition with the helical peptide for the ER surface or binding of the small molecule to the ligand binding site as an antagonist, deactivating the ER and preventing coactivator recruitment. To rule out the latter mechanism, a competitive radioligand assay with [^3H]estradiol was carried out to specifically measure the affinity of 3 for the estradiol binding site. According to the radioligand assay, 3 binds to this site with an affinity <0.001% the affinity of 17β-estradiol. […] From this it was concluded that the helix mimetics prevent the coactivator association through direct competition for its binding site on the ER surface. […]
Procedure: Ammonium sulfate precipitates of the hER were dissolved in TDEE buffer containing 100 mM KCl, 0.5 mM leupeptin, and 10% glycerol. […] The hER was incubated with a varied concentration of [^3H]estradiol, and the nonspecific binding was measured by a parallel incubation with [^3H]estradiol plus a 300-fold excess of estradiol for 15 h at 4° C. At the completion of the incubation, 50 μL of each mixture was removed and the total [^3H]estradiol concentration determined. […] The hydroxylapatite pellets were suspended in 1 mL of ethanol and counted in 5 mL of scintillation fluid, and the receptor-bound [^3H]estradiol was measured. […]

ERα [3] = target: T1, ERα; parameters: purchased Invitrogen; conditions: used to obtain Ki from IC50; D22 at 1 nM; read-out: Kd of the fluorescent peptide; cited from earlier work

Compound: CLTERHKILHRLLQE [SRC-1 NR II, CLTERHKILHRLLQE, reference compound]
- Ki (ERα [1]; standard deviation in brackets): 0.95 µM
- Ki (ERα [1]; Table 1 left column): 1 µM

Compound: CC(C)Cc1cc(-c2c(CC(C)C)cc(O)c(=O)n2CCc2ccccc2)ccn1 [Compound 3, 3-Hydroxy-5-isobutyl-6-(2-isobutyl-4-pyridyl)-1-(2-phenylethyl)-1H-pyridin-2-one]
- Ki (ERα [1]; standard deviation in brackets): 9.4 µM
- affinity for the estradiol binding site relative to 17β-estradiol (ERα [2]): < 0.001%

Compound: Rho-LPYEGSLLLKLLRAPVEEV-COOH [Compound D22, rhodamine-labeled peptide which contains a single LXXLL motif, FP probe]
- Kd (ERα [3]): 0.031 µM

Compound: CC(C)CCn1c(-c2ccnc(CC(C)C)c2)c(CC(C)C)cc(O)c1=O [Compound 2, 3-Hydroxy-5-isobutyl-6-(2-isobutyl-4-pyridyl)-1-(3-methylbutyl)-1H-pyridin-2-one]
- Ki (ERα [1]; standard deviation in brackets): 16 µM

The next lines start with the values.

- Ki (ERα [1]; standard deviation in brackets): > 50 µM
- affinity (in words) (ERα [1]): weak affinity
Compound: CC(C)Cc1cc(-c2c(CC(C)C)cc(O)c(=O)n2CCC(C)(C)C)ccn1 [Compound 4, 3-hydroxy-5-isobutyl-6-(2-isobutyl-4-pyridyl)-1-(3,3-dimethylbutyl)1H-pyridin-2-one]

- fluorescence polarization titration curve (ERα [1]): slopes rapidly downward
- Ki (ERα [1]; Table 1 left column): 34 µM
- decrease in affinity (ERα [1]; relative to compound 2): 2 fold
Compound: CC(C)Cc1cc(-c2c(CC(C)C)cc(O)c(=O)n2CC(C)C)ccn1 [Compound 1, 3-Hydroxy-1,5-diisobutyl-6-(2-isobutyl-4-pyridyl)-1H-pyridin-2-one]

- Ki (ERα [1]; standard deviation in brackets): 6.5 µM
Compound: CC(C)Cc1cc(O)c(=O)n(CCc2ccccc2)c1-c1ccnc(Cc2ccccc2)c1 [Compound 6, 6-(2-Benzyl-4-pyridyl)-3-hydroxy-5-isobutyl-1-(2-phenylethyl)-1H-pyridin-2-one]

- Ki (ERα [1]; standard deviation in brackets): > 50 µM
- fluorescence polarization titration curve (ERα [1]): about 0.95
- affinity (in words) (ERα [1]): weak affinity
Compound: CC(C)Cc1cc(O)c(=O)n(CCC(C)(C)C)c1-c1ccnc(C(C)(C)C)c1 [Compound 5, 6-(2-tert-Butyl-4-pyridyl)-3-hydroxy-5-isobutyl-1-(3,3-dimethylbutyl)1H-pyridin-2-one]

- Ki (ERα [1]; standard deviation in brackets): 4.2 µM
Compound: CC(C)Cc1cc(O)c(=O)n(CCc2ccc3ccccc3c2)c1-c1ccnc(Cc2ccccc2)c1 [Compound 7, 6-(2-Benzyl-4-pyridyl)-3-hydroxy-5-isobutyl-1-(2-(2-naphthyl)ethyl)-1H-pyridin-2-one]
